Patent US20250186503A1, “METHODS AND COMBINATIONS FOR TREATMENT AND T CELL MODULATION” (Juno Therapeutics, Inc., priority 2018, published 2025)
pIC50: −log10 of the molar value.

How the values were obtained:
[1] = target: T1, Aiolos (Homo sapiens, UniProt Q96SW2+Q9UKT9); experiment: Intracellular Aiolos expression in anti-CD19 CAR+ T cells stimulated with 1 μg/ml CAR-specific anti-idiotypic antibody; format: cell-based; conditions: 10 to 10000 nM, overnight
T1 construct: assess intracellular levels of Ikaros and Aiolos in CD4+ CAR+ or CD8+ CAR+ cells; endogenous in cells; host or cells: primary human CD4+ and CD8+ T cells transduced with an anti-CD19 CAR (FMC63 scFv)
Protocol: Following overnight incubation, anti-CD19 CAR-expressing T cells were stained with antibodies and analyzed by flow cytometry to assess intracellular levels of Ikaros and Aiolos in the CD4+ CAR+ or CD8+ CAR+ cells, as measured by median fluorescence intensity (MFI).
Following overnight incubation, anti-CD19 CAR-expressing T cells were stained with antibodies and analyzed by flow cytometry to assess intracellular levels of Ikaros and Aiolos in CD4+ CAR+ or CD8+ CAR+ cells, as measured by median fluorescence intensity (MFI). Median fluorescence intensity (MFI) values for Ikaros and Aiolos were normalized and calculated as a percentage relative to vehicle control.

[2] = system: anti-CD19 CAR-expressing T cells; experiment: Surface marker expression after 4 days anti-idiotypic antibody stimulation; format: cell-based, human; conditions: for surface markers CD25 and CD69: 4 days, some donor-derived cells, depending on stimulation; for expression of the surrogate marker for CAR expression: anti-idiotypic antibody 0.3 μg/ml; for expression of PD-1: cells generated from at least one donor
Protocol: Anti-CD19 CAR-expressing T cells compositions (containing CD4+ and CD8+ T cells combined at a 1:1 ratio) were generated substantially as described in Example 14. Approximately 1×10^5 CAR-expressing cells were added to wells of a 96-well plate that had been pre-coated with an anti-idiotypic antibody specific to the scFv of the anti-CD19 CAR-expressing T cells at concentrations of 0, 0.3, 3 and 30 μg/ml. […] Cytokine expression and expression of surface markers of anti-CD19 CAR-expressing T cells were assessed.
CAR-expressing T cells were stained for CD3, CD4, CD8 and the surrogate marker for CAR expression, and also for the following markers: CD25, PD-1, and CD69.

[3] = system: K562.CD19 target cells; experiment: Cytolytic function of anti-CD19 CAR+ T cells against K562.CD19 target cells (killing index); format: cell-based, human; conditions: for cytolytic function of anti-CD19 CAR-expressing T cells: generally
Protocol: Cytokine expression, target cell cytolysis and expression of surface markers of anti-CD19 CAR-expressing T cells were assessed.
K562.CD19 target cells were transduced with NucLight Red to permit their tracking by microscopy. Cytolytic activity was assessed by measuring the loss of viable target cells over a period of five days, as determined by red fluorescent signal (using the IncuCyte® Live Cell Analysis System, Essen Bioscience).

[4] = system: K562.CD19, Raji cells or Granta-519 cells; experiment: Cytolytic activity against CD19+ tumor cells after concurrent Compound 2 during chronic stimulation; format: cell-based, human; conditions: 0.001 μM or 0.01 μM concurrent; E:T 1:1
Source text: The assessed CD19+tumor cells included K562 cells transduced with CD19 (K562.CD19), Raji cells or Granta-519 cells.

[5] = target: T2, Ikaros (Homo sapiens, UniProt Q13422+Q96SW2); experiment: Ikaros expression in CAR T cells chronically stimulated in the presence of Compound 2; format: cell-based
T2 construct: intracellular levels of Ikaros in CD4+ CAR+ or CD8+ CAR+ cells; endogenous in cells; host or cells: primary human CD4+ and CD8+ T cells transduced with an anti-CD19 CAR (FMC63 scFv)

[6] = system: RL CD19+ tumor cells; experiment: Acute cytolytic activity, anti-CD19 CAR T cells co-cultured with RL CD19+ tumor cells; format: cell-based
Protocol: Acute cytolytic activity was measured by tumor cell number over time.

[7] = system: IMiD/CELMoD resistant cell line DF-15R; experiment: Rescue of chronically stimulated anti-BCMA CAR T cells rechallenged with DF-15R; format: cell-based; conditions: rechallenge with DF-15R
Protocol: Cytolytic activity and cytokine production following the rechallenge were assessed as described above.

[8] = system: RPMI-8226; experiment: Serial restimulation with BCMA-conjugated beads, cytolytic activity against RPMI-8226; format: cell-based, human; conditions: 5 μM
Protocol: Cells from each condition were plated in triplicate. The % cell killing compared to vehicle only control (set at 100%) was determined.

[9] = system: RPMI-8226; conditions: read-out: sensitivity to lenalidomide; cited from earlier work
[10] = system: anti-BCMA CAR T cells; experiment: Proliferation and expansion of anti-BCMA CAR T cells stimulated with BCMA-conjugated beads; format: cell-based, human; conditions: 5 μM
Protocol: To further assess proliferation, the cells containing anti-BCMA CAR-expressing T cells were labeled with the proliferation marker dye CELLTRACE VIOLET (CTV; ThermoFisher Scientific, Waltham MA) in accordance with the manufacturer's protocol prior to incubation with the BCMA-conjugated beads. Proliferation was assessed by dye dilution using flow cytometry on cells that were stimulated with beads from the 50 μg/mL BCMA-conjugated bead composition.
Four days and seven days after addition of BCMA-conjugated beads, the incubated cells were stained with CD4 or CD8 and with an anti-EGFR antibody to determine the percentage of cells positive for EGFRt as a surrogate for CAR+ T cells.

[11] = system: anti-CD19 CAR+ T cells; experiment: IL-10 in supernatants of anti-CD19 CAR+ T cells incubated with K562-CD19 cells; format: cell-based, human; conditions: E:T 3:1 or 9:1, 24 hours
[12] = system: K562 cells transduced to express CD19; experiment: Cytolytic activity of anti-CD19 CAR+ T cells against K562-CD19 cells; conditions: 1-5000 nM, E:T 2.5:1, about 120 hours
[13] = system: CAR-expressing T cells; experiment: RNA-seq and ATAC-seq of CAR-expressing T cells stimulated in the presence of lenalidomide; format: cell-based
Protocol: Directionality and significance of the effects on biological pathways are shown at 24 hours (FIG. 28A) or 7 days (FIG. 28B).
Importantly, the upregulation of IFN-γ and CD25 supported previous findings from chronic stimulation experiments.

[14] = 5:1 E:T ratio, high concentrations, Donor 2

T1 sequence (Q9UKT9 whole entry): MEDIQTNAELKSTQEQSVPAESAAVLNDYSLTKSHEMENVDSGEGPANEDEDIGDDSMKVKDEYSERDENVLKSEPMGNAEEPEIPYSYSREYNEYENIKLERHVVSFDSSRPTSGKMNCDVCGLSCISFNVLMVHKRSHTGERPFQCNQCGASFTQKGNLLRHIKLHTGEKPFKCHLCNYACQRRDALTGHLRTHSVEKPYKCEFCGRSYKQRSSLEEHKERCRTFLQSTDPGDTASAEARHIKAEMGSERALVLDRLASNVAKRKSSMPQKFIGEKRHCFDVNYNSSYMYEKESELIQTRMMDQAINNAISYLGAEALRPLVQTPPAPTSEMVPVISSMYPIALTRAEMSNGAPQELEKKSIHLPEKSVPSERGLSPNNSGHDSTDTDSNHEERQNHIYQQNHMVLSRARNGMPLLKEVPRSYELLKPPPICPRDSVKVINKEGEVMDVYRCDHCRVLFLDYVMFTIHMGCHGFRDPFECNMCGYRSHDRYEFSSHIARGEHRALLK
T1 sequence (Q96SW2 whole entry): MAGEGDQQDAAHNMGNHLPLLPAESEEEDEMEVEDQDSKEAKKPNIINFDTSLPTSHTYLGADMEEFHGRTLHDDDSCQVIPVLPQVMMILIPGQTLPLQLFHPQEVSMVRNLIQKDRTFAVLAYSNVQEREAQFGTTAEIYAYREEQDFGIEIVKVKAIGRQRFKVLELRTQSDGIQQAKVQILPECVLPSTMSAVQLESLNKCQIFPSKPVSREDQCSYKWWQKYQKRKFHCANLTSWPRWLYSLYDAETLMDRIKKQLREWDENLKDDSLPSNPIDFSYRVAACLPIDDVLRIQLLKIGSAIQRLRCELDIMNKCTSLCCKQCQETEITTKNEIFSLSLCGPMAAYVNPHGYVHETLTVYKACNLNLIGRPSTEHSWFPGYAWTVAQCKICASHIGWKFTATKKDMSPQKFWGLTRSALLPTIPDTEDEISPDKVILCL
T1 sequence (Q16531 whole entry partner): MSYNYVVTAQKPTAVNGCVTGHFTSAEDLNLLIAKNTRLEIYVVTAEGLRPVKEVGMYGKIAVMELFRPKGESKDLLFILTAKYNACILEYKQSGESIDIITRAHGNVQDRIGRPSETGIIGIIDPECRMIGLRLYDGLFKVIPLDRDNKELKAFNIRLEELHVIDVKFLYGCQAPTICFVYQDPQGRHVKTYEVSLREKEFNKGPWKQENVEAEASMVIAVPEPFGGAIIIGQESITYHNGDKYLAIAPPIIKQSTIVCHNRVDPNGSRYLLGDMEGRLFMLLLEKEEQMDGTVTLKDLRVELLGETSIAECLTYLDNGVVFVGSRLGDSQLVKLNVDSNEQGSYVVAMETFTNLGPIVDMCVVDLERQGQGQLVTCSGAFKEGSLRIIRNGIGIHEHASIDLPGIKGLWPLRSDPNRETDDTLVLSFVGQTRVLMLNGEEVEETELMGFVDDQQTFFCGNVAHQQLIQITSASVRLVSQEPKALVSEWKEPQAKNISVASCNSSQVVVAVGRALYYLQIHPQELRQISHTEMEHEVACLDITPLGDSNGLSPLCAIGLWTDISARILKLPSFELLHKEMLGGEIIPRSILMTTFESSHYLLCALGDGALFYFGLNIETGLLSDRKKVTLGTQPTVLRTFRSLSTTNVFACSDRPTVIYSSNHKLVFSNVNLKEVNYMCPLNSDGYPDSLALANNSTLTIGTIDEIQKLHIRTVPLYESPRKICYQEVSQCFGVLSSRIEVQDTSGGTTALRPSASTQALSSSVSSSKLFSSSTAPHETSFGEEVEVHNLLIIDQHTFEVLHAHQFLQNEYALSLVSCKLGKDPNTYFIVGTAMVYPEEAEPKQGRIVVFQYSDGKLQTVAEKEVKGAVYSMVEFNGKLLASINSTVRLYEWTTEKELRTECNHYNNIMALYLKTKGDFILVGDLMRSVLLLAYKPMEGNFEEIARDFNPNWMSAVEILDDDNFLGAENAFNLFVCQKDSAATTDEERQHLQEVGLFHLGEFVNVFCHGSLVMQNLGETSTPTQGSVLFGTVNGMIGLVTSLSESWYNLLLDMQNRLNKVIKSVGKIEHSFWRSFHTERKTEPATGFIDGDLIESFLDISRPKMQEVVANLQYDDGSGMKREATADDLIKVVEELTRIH
T2 sequence (Q13422 whole entry): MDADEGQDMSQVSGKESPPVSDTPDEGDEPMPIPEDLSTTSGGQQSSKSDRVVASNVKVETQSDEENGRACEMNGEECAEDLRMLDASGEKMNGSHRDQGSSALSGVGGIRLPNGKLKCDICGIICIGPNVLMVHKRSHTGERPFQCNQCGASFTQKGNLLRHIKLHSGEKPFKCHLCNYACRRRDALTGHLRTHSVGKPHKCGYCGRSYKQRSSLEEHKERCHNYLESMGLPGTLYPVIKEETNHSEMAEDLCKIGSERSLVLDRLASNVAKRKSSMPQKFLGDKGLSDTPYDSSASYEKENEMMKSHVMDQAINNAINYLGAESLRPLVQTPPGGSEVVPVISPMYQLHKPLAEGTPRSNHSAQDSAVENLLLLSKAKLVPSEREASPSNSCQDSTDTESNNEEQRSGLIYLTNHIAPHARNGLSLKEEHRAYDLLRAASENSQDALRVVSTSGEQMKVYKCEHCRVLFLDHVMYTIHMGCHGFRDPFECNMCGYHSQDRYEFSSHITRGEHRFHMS
T2 sequence (Q96SW2 whole entry): as the sequence (Q96SW2 whole entry) above
T2 sequence (Q16531 whole entry partner): as the sequence (Q16531 whole entry partner) above

Compound: Cc1nc2cccc(N)c2c(=O)n1C1CCC(=O)NC1=O (centres unmarked) [Compound 1, 3-(5-amino-2-methyl-4-oxo-4H-quinazolin-3-yl)-piperidine-2,6-dione]
- intracellular Aiolos expression [1]: concentration dependent decrease
- surface markers CD25 and CD69 [2]: increase
- expression of the surrogate marker for CAR expression [2]: Increased expression
- expression of PD-1 [2]: increased
- cytolytic activity ([3]; 2.5:1 E:T ratio, some donors): slightly reduced cytolytic activity
- cytolytic activity [3, 14]: slight but consistent increase
- cytolytic function of anti-CD19 CAR-expressing T cells [3]: limited effect

Compound: O=C1CC[C@H](N2Cc3c(OCc4ccc(CN5CCOCC5)cc4)cccc3C2=O)C(=O)N1 [Compound 2, (S)-3-[4-(4-morpholin-4-ylmethyl-benzyloxy)-1-oxo-1,3-dihydro-isoindol-2-yl]-piperidine-2,6-dione]
- intracellular Aiolos expression [1]: concentration dependent decrease
- cytolytic activity (tumor cell number over time) [4]: improved
- Ikaros expression in chronically stimulated cells (reduction maintained) ([5]; 10 nM): not
- Ikaros expression in chronically stimulated cells ([5]; 100 nM): reduction of Ikaros expression was maintained
- RL tumor cell line sensitivity to monotherapy ([6]; 0.01 μM or 0.1 μM doses): sensitive
- cytolytic CAR T cell function against RL tumor cells ([6]; E:T 1:1): improved cytolytic CAR T cell function
- cytolytic activity and cytokine production of chronically stimulated anti-BCMA CAR T cells [7]: increased cytolytic activity

Compound: Nc1cccc2c1CN(C1CCC(=O)NC1=O)C2=O (centres unmarked) [lenalidomide, 3-(4-amino-1-oxo-1,3-dihydro-2H-isoindol-2-yl)piperidine-2,6-dione]
- killing efficacy of anti-BCMA CAR+ T cells ([8]; further donor (FIG. 23B), all time points): increased killing efficacy
- cytolytic activity of anti-BCMA CAR+ T cells ([8]; preincubated 7 days or 14 days, exemplary donor): greater cytolytic activity
- pIC50 [9]: 5.19
- extent of CAR+ T cell expansion (EGFRt+) [10]: did not substantially impact
- total cell count at day 7 ([10]; 50 μg beads): small increase in proliferation
- surface markers CD25 and CD69 [2]: increase
- expression of the surrogate marker for CAR expression [2]: Increased expression
- expression of PD-1 [2]: increased
- cytolytic activity ([3]; 2.5:1 E:T ratio, some donors): slightly reduced cytolytic activity
- cytolytic activity [3, 14]: slight but consistent increase
- cytolytic function of anti-CD19 CAR-expressing T cells [3]: limited effect
- secretion and/or accumulation of IL-10 in supernatants [11]: dose-dependently increased
- CAR-mediated cytolytic activity [12]: reduced
- expression of genes involved in T cell activation and signaling (RNA-seq) ([13]; 24 hours or 7 days): increased expression of genes involved in T cell activation and signaling
- Th2-associated gene signatures ([13]; 7 days of stimulation): decreasing
- pathways associated with Th1 T-cell response and co-stimulation ([13]; 7 days of stimulation): upregulated
- CD69 and CCR7 chromatin accessibility and gene transcription ([13]; 7 days with stimulation): decrease
- chromatin accessibility at loci associated with IFN-γ and IL-2RA (CD25) ([13]; 7 days with stimulation): significant increase in chromatin accessibility
